Reference: patent US5140009A (Tap Pharmaceuticals, Inc., priority 1990, dated 1992)
Square brackets hold non-standard residues; d marks the D form. Peptide text beside a SMILES is read from it. * marks the point of attachment. Propanoyl(3-(4-F-phenyl)) = O=C(CCc1ccc(F)cc1)*; Propanoyl(3-(4-Cl-Ph)) = O=C(CCc1ccc(Cl)cc1)*; dPhe(4-Cl) = N[C@H](Cc1ccc(Cl)cc1)C(=O)O; 1Nal = N[C@@H](Cc1cccc2ccccc12)C(=O)O; d1Nal = N[C@H](Cc1cccc2ccccc12)C(=O)O; d(hCit) = NC(=O)NCCCC[C@@H](N)C(=O)O; NMeY = CN[C@@H](Cc1ccc(O)cc1)C(=O)O; hhPhe = N[C@@H](CCCc1ccccc1)C(=O)O; d3Pal = N[C@H](Cc1cccnc1)C(=O)O; d2Thi = N[C@H](Cc1cccs1)C(=O)O; Nicotinoyl = O=C(c1cccnc1)*; X9 = O=C(CCc1ccc(Br)cc1)*; Bn = c1ccc(C*)cc1

Target: T1, LHRH receptors (Rattus norvegicus, UniProt P30969)
T1 construct: Pituitary membranes containing LHRH receptors are prepared in batches from quick-frozen rat pituitaries; tissue Hilltop Labs; host or cells: rat pituitary membranes
T1 sequence (P30969 1-327): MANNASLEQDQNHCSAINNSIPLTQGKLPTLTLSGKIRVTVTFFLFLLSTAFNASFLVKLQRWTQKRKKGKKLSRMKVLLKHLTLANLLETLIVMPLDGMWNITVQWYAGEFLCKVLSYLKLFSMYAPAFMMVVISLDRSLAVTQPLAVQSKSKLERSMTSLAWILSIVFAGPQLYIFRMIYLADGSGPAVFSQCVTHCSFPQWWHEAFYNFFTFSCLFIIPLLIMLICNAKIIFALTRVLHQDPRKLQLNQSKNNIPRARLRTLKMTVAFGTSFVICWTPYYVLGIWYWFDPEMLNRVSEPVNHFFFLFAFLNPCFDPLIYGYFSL
Assay: Receptor Binding (radioligand receptor binding assay)
Settings: Receptor Binding pkI, table 4; rat pituitary membranes, radioligand 50 pM, 2 hours at 4° C.

Row | SMILES | Ki
1 | CC(C)C[C@H](NC(=O)[C@@H](CCCCN)NC(=O)[C@H](Cc1ccc(O)cc1)NC(=O)[C@H](COCc1ccccc1)NC(=O)[C@@H](Cc1cccs1)NC(=O)CCc1ccc(Cl)cc1)C(=O)N[C@@H](CCCNC(=N)N)C(=O)N1CCC[C@H]1C(=O)N[C@H](C)C(N)=O [Compound 167, (3-10)[N-(3-(4-Chlorophenyl)propionyl)-D-Thia^3 -Ser(O-Bzl)^4 -D-Lys^6 -D-Ala^10]LHRH] ({Propanoyl(3-(4-Cl-Ph))}-[d2Thi]S(Bn)Y[dK]LRP[dA]-NH2) | 0.457 nM

Same assay, conditions: table 4; rat pituitary membranes, radioligand 50 pM, 2 hours at 4° C.; read-out: Receptor Binding pkI (converted)

Row | SMILES | Ki
2 | CCNC(=O)[C@@H]1CCCN1C(=O)[C@H](CCCN=C(N)N)NC(=O)[C@H](CC(C)C)NC(=O)[C@@H](Cc1c[nH]c2ccccc12)NC(=O)[C@H](Cc1ccc(O)cc1)N(C)C(=O)[C@H](CO)NC(=O)[C@@H](Cc1c[nH]c2ccccc12)NC(=O)CCc1ccc(Cl)cc1 [Compound 156, (3-9)[N-(3-(4-Chlorophenyl)propionyl) -D-Trp^3,6 -NMeTyr^5 -Pro^9 NHEt]LHRH] ({Propanoyl(3-(4-Cl-Ph))}-[dW]S[NMeY][dW]LRP-NHEt) | 0.0692 nM
3 | CCNC(=O)[C@@H]1CCCN1C(=O)[C@H](CCCNC(=N)N)NC(=O)[C@H](CC(C)C)NC(=O)[C@@H](Cc1c[nH]c2ccccc12)NC(=O)[C@H](Cc1ccc(O)cc1)N(C)C(=O)[C@H](CO)NC(=O)[C@@H](Cc1cccc2ccccc12)NC(=O)CCc1ccc(F)cc1 [Compound 157, (3-9)[N-(3-(4-Fluorophenyl)propionyl)-D -1-Nal^3 -NMeTyr^5 -D-Trp^6 -Pro^9 NHEt]LHRH] ({Propanoyl(3-(4-F-phenyl))}-[d1Nal]S[NMeY][dW]LRP-NHEt) | 0.0479 nM
4 | CCNC(=O)[C@@H]1CCCN1C(=O)[C@H](CCCNC(=N)N)NC(=O)[C@H](CC(C)C)NC(=O)[C@@H](Cc1c[nH]c2ccccc12)NC(=O)[C@H](Cc1ccc(O)cc1)N(C)C(=O)[C@H](CO)NC(=O)[C@H](Cc1cccc2ccccc12)NC(=O)CCc1ccc(F)cc1 [Compound 158, (3-9)[N-(3-(4-Fluorophenyl)propionyl) -1-Nal^3 -NMeTyr^5 -DTrp^6 -Pro^9 NHEt]LHRH] ({Propanoyl(3-(4-F-phenyl))}-[1Nal]S[NMeY][dW]LRP-NHEt) | 0.0174 nM
5 | CCNC(=O)[C@@H]1CCCN1C(=O)[C@H](CCCNC(=N)N)NC(=O)[C@H](CC(C)C)NC(=O)[C@@H](Cc1c[nH]c2ccccc12)NC(=O)[C@H](Cc1ccc(O)cc1)N(C)C(=O)[C@H](CO)NC(=O)[C@@H](Cc1cccc2ccccc12)NC(=O)CCc1ccc(Br)cc1 [Compound 159, (3-9)[N-(3-(4-Bromophenyl)propionyl)-D -1-Nal^3 -NMeTyr^5 -DTrp^6 -Pro^9 NHEt]LHRH] (X9-[d1Nal]S[NMeY][dW]LRP-NHEt) | 0.0562 nM
6 | CCNC(=O)[C@@H]1CCCN1C(=O)[C@H](CCCNC(=N)N)NC(=O)[C@H](CC(C)C)NC(=O)[C@@H](Cc1c[nH]c2ccccc12)NC(=O)[C@H](Cc1ccc(O)cc1)N(C)C(=O)[C@H](CO)NC(=O)[C@H](Cc1cccc2ccccc12)NC(=O)CCc1ccc(Br)cc1 [Compound 160, (3-9)[N-(3-(4-Bromophenyl)propionyl) -1-Nal^3 -NMeTyr^5 -DTrp^6 -Pro^9 NHEt]LHRH] (X9-[1Nal]S[NMeY][dW]LRP-NHEt) | 0.11 nM
7 | CC(C)C[C@H](NC(=O)[C@@H](CCCCNC(=O)c1cccnc1)NC(=O)[C@H](Cc1ccc(O)cc1)N(C)C(=O)[C@H](CO)NC(=O)[C@@H](Cc1cccs1)NC(=O)CCc1ccc(F)cc1)C(=O)N[C@@H](CCCNC(=N)N)C(=O)N1CCC[C@H]1C(=O)N[C@H](C)C(N)=O [Compound 161, N-[3-(4-Fluorophenyl)propionyl]-D-Thia-Ser-NMeTyr-D -Lys(N-epsilon-nicotinyl)-Leu-Arg-Pro-D-AlaNH2] ({Propanoyl(3-(4-F-phenyl))}-[d2Thi]S[NMeY][dK](Nicotinoyl)LRP[dA]-NH2) | 0.0151 nM
8 | CC(C)C[C@H](NC(=O)[C@@H](Cc1c[nH]c2ccccc12)NC(=O)[C@H](Cc1ccc(O)cc1)NC(=O)[C@H](CO)NC(=O)[C@@H](Cc1c[nH]c2ccccc12)NC(=O)CCc1ccc(F)cc1)C(=O)N[C@@H](CCCNC(=N)N)C(=O)N1CCC[C@H]1C(=O)N[C@H](C)C(N)=O [Compound 162, (3-10)[N-(3-(4-Fluorophenyl)propionyl)-D-Trp^3,6 -D-Ala^10]LHRH] ({Propanoyl(3-(4-F-phenyl))}-[dW]SY[dW]LRP[dA]-NH2) | 0.0105 nM
9 | CC(C)C[C@H](NC(=O)[C@@H](Cc1c[nH]c2ccccc12)NC(=O)[C@H](Cc1ccc(O)cc1)N(C)C(=O)[C@H](CO)NC(=O)[C@@H](Cc1c[nH]c2ccccc12)NC(=O)CCc1ccc(F)cc1)C(=O)N[C@@H](CCCNC(=N)N)C(=O)N1CCC[C@H]1C(=O)N[C@H](C)C(N)=O [Compound 164, (3-10)[N-(3-(4-Fluorophenyl)propionyl)-D-Trp^3,6 -NMeTyr^5 -D-Ala^10]LHRH] ({Propanoyl(3-(4-F-phenyl))}-[dW]S[NMeY][dW]LRP[dA]-NH2) | 0.0537 nM
10 | CC(C)C[C@H](NC(=O)[C@@H](CCCCN)NC(=O)[C@H](Cc1ccc(O)cc1)N(C)C(=O)[C@H](COCc1ccccc1)NC(=O)[C@@H](Cc1cccs1)NC(=O)CCc1ccc(Cl)cc1)C(=O)N[C@@H](CCCNC(=N)N)C(=O)N1CCC[C@H]1C(=O)N[C@H](C)C(N)=O [Compound 168, (3-10)[N-(3-(4-Chlorophenyl)propionyl)-D-Thia^3 -Ser(O-Bzl)^4 -NMeTyr^5 -D-Lys^6 -D-Ala^10]LHRH] ({Propanoyl(3-(4-Cl-Ph))}-[d2Thi]S(Bn)[NMeY][dK]LRP[dA]-NH2) | 0.129 nM
11 | CC(C)C[C@H](NC(=O)[C@@H](CCCCN)NC(=O)[C@H](Cc1ccc(O)cc1)N(C)C(=O)[C@H](CO)NC(=O)[C@@H](Cc1cccnc1)NC(=O)CCc1ccc(F)cc1)C(=O)N[C@@H](CCCNC(=N)N)C(=O)N1CCC[C@H]1C(=O)N[C@H](C)C(N)=O [Compound 170, (3-10)[N-(3-(4-Fluorophenyl)propionyl)-D-3-Pal^3 -NMeTyr^5 -D-Lys^6 -D-Ala^10]LHRH] ({Propanoyl(3-(4-F-phenyl))}-[d3Pal]S[NMeY][dK]LRP[dA]-NH2) | 0.0204 nM
12 | CC(C)C[C@H](NC(=O)[C@@H](CCCCNC(=O)c1cccnc1)NC(=O)[C@H](Cc1ccc(O)cc1)N(C)C(=O)[C@H](CO)NC(=O)[C@@H](Cc1cccnc1)NC(=O)CCc1ccc(F)cc1)C(=O)N[C@@H](CCCNC(=N)N)C(=O)N1CCC[C@H]1C(=O)N[C@H](C)C(N)=O [Compound 171] ({Propanoyl(3-(4-F-phenyl))}-[d3Pal]S[NMeY][dK](Nicotinoyl)LRP[dA]-NH2) | 0.0676 nM
13 | CC(C)C[C@H](NC(=O)[C@@H](CCCCN)NC(=O)[C@H](Cc1ccc(O)cc1)N(C)C(=O)[C@H](CO)NC(=O)[C@@H](Cc1c[nH]c2ccccc12)NC(=O)CCc1ccc(F)cc1)C(=O)N[C@@H](CCCNC(=N)N)C(=O)N1CCC[C@H]1C(=O)N[C@H](C)C(N)=O [Compound 173, (3-10)[N-(3-(4-Fluorophenyl)propionyl)-D-Trp^3 -NMeTyr^5 -D-Lys^6 -D-Ala^10]LHRH] ({Propanoyl(3-(4-F-phenyl))}-[dW]S[NMeY][dK]LRP[dA]-NH2) | 0.00575 nM
14 | CC(C)C[C@H](NC(=O)[C@@H](CCCCNC(=O)c1cccnc1)NC(=O)[C@H](Cc1ccc(O)cc1)N(C)C(=O)[C@H](CO)NC(=O)[C@@H](Cc1cccc2ccccc12)NC(=O)CCc1ccc(F)cc1)C(=O)N[C@@H](CCCNC(=N)N)C(=O)N1CCC[C@H]1C(=O)N[C@H](C)C(N)=O [Compound 174, (3-10)[N-(3-(4-Fluorophenyl)propionyl)-D-1-Nal^3 -NMeTyr^5 -D-Lys^6 (N-epsilon-nicotinyl)-D-Ala^10]LHRH] ({Propanoyl(3-(4-F-phenyl))}-[d1Nal]S[NMeY][dK](Nicotinoyl)LRP[dA]-NH2) | 0.0132 nM
15 | CC(C)C[C@H](NC(=O)[C@@H](CCCCN)NC(=O)[C@H](Cc1ccc(O)cc1)N(C)C(=O)[C@H](CO)NC(=O)[C@@H](Cc1ccc(Cl)cc1)NC(=O)CCc1ccc(F)cc1)C(=O)N[C@@H](CCCNC(=N)N)C(=O)N1CCC[C@H]1C(=O)N[C@H](C)C(N)=O [Compound 175, (3-10)[N-(3-(4-Fluorophenyl)propionyl)-D-4-Cl-Phe^3 -NMeTyr^5 -D-Lys^6 -D-Ala^10]LHRH] ({Propanoyl(3-(4-F-phenyl))}-[dPhe(4-Cl)]S[NMeY][dK]LRP[dA]-NH2) | 0.00631 nM
16 | CC(C)C[C@H](NC(=O)[C@@H](CCCCN)NC(=O)[C@H](Cc1ccc(O)cc1)N(C)C(=O)[C@H](CCCc1ccccc1)NC(=O)[C@@H](Cc1cccc2ccccc12)NC(=O)CCc1ccc(F)cc1)C(=O)N[C@@H](CCCNC(=N)N)C(=O)N1CCC[C@H]1C(=O)N[C@H](C)C(N)=O [Compound 176, (3-10)[N-(3-(4-Fluorophenyl)propionyl)-D-1-Nal^3-hhPhe^4 -NMeTyr^5 -D-Lys^6 -D-Ala^10]LHRH] ({Propanoyl(3-(4-F-phenyl))}-[d1Nal][hhPhe][NMeY][dK]LRP[dA]-NH2) | 2.88 nM
17 | CC(C)C[C@H](NC(=O)[C@@H](CCCCNC(N)=O)NC(=O)[C@H](Cc1ccc(O)cc1)N(C)C(=O)[C@H](CO)NC(=O)[C@@H](Cc1cccc2ccccc12)NC(=O)CCc1ccc(F)cc1)C(=O)N[C@@H](CCCNC(=N)N)C(=O)N1CCC[C@H]1C(=O)N[C@H](C)C(N)=O [Compound 178, (3-10)[N-(3-(4-Fluorophenyl)propionyl)-D-1-Nal^3 -NMeTyr^5 -D-Hcit^6 -D-Ala^10]LHRH] ({Propanoyl(3-(4-F-phenyl))}-[d1Nal]S[NMeY][d(hCit)]LRP[dA]-NH2) | 0.00955 nM
